Patent publication US20080193963A1, “Method of Determining the State of Activation of a Protein” (NAMBITION GMBH, priority 2005, published 2008)

Molecular target: T1, NhaA (Escherichia coli, UniProt P13738)
T1 construct: Pulling NhaA (402aa) from either the N- or C-terminus; His6 (C); made in house; host or cells: E. coli BL21(DE3)
Test: Single-molecule force spectroscopy (SMFS) unfolding of NhaA in presence of inhibitor
Type: binding
Experimental: We used a NanoWizard AFM (JPK Instruments, Germany) with an 850 nm laser detection system. As AP absorbs light between 290 and 350 nm, we avoided double-photon excitation and photobleaching by the laser. The spring constants of the 200 μm long (di-Veeco, USA) and 80μ long (Olympus, Japan) Si3N4 AFM cantilevers used were determined using the equipartion theorem (Butt H. J., 1995; Florin, 1995). NhaA was reconstituted into E. coli polar lipid bilayers forming two-dimensional crystals (Williams et al., 1999). Membranes were immobilized on freshly cleaved mica in 200 mM KCl, 10% glycerol, 25 mM K^+-acetate, pH 4.0 for 20 min. Experiments were performed in buffer solutions containing 190 mM KCl and 10 mM NaCl at pH 7.7 (20 mM tris-HCl) and pH 4.0 (20 mM citric acid). AP concentrations of prepared solutions were determined by their optical densities at λ=305.5 using the excitation coefficient eAP=7500 M^−1·cm^−1 (Additional Ref. 151). Solutions containing AP were kept away from light and experiments were performed in a dark room. Buffer solutions were made in fresh nano-pure water (18.2MΩ·cm^−1), using p. a. purity grade reagents from Sigma/Merck. AFM topographs of immobilized membrane patches resolved the crystalline NhaA arrangements, which were selected to unfold individual proteins (Kedrov et al., 2004).
Only C-terminal unfolding events were studied as they are dominant at pH 7.7 (Additional Ref. 152). To obtain the unfolded polpeptide chain length each force peak was fifted using the worm-like-chain (Bustamante et al., 1994) model as described ([…]). Individual unfolding barriers were located by subtracting the unfolded polypeptide length fron the C-terminus. For each force peak (unfolding barrier) the probability and average forces were calculated. At every studied condition up to 150 single-molecule unfolding events were analyzed using Igor Pro (Wavemetrics Inc., USA) and home-written macros. To probe the statistical difference of data sets the data were tested against one-way ANOVA analysis.

T1 sequence (P13738 whole entry): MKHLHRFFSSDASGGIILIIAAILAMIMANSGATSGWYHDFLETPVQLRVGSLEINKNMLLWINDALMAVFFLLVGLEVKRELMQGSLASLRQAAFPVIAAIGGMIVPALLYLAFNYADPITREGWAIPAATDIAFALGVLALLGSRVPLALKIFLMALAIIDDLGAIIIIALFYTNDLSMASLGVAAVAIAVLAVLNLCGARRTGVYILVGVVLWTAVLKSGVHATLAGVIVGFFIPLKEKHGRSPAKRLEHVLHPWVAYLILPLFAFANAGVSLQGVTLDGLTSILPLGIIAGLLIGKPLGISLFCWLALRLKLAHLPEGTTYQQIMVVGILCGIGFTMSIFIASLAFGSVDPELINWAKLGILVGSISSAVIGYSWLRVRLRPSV

NC1=Nc2cccc3cccc(c23)N1 [AP, 2-aminoperimidine]
"stable" fraction in histograms of force at helix IX (AP binding) with increasing Na+ concentration (40 μM AP, 10 or 200 μM NaCl as printed): drastic decrease | average strength of the interaction detected by the 125aa force peak (helix XI as printed) (40 μM AP, NhaA activated at pH 7.7, mean ±SD, n=95, without AP 75±29 pN (n=61), p<0.0001): 105±41 pN | enhanced interaction strength of a fraction of NhaA molecules (125aa peak) after exposure to AP (pH 7.7, NhaA.AP complex population, free NhaA ≈75 pN): ≈ 140 pN | NhaA molecules that established enhanced stability at α-helix IX (pH-locked conformation, pH 4.0, incubated with 40 μM AP): ≈ 15%
